Usually MIC stands for the lowest concentration that inhibits growth of the organism. Lower therefore signals a more susceptible organism.

Values after ≈ are worked out from the molar mass of the structure shown.

The subject of the experiment is Staphylococcus aureus (SAUR 9213). The experiment can be described thus: MIC by standard agar dilution method. The class given is cell-based. Conditions: Mueller Hinton agar, overnight at 35° C. The source says:
The antibacterial agents of this invention have useful activity against a variety of organisms. The in vitro activity of compounds of this invention can be assessed by standard testing procedures such as the determination of minimum inhibitory concentration (MIC) by agar dilution as described in “Approved Standard. Methods for Dilution Antimicrobial Susceptibility Tests for Bacteria That Grow Aerobically”, 3rd. ed., published 1993 by the National Committee for Clinical Laboratory Standards, Villanova, Pa., USA. The in vitro MICs of test compounds are determined by a standard agar dilution method. A stock drug solution of each analog is prepared in the preferred solvent, usually DMSO:H2O (1:3). Serial 2-fold dilutions of each sample are made using 1.0 ml aliquots of sterile distilled water. To each 1.0 ml aliquot of drug is added 9 ml of molten Mueller Hinton agar medium. The drug-supplemented agar is mixed, poured into 15×100 mm petri dishes, and allowed to solidify and dry prior to inoculation. Vials of each of the test organisms are maintained frozen in the vapor phase of a liquid nitrogen freezer. Test cultures are grown overnight at 35° C. on the medium appropriate for the organism. Colonies are harvested with a sterile swab, and cell suspensions are prepared in Trypticase Soy broth (TSB) to equal the turbidity of a 0.5 McFarland standard. A 1:20 dilution of each suspension is made in TSB. The plates containing the drug supplemented agar are inoculated with a 0.001 ml drop of the cell suspension using a Steers replicator, yielding approximately 10^4 to 10^5 cells per spot. The plates are incubated overnight at 35° C. Following incubation the Minimum Inhibitory Concentration (MIC μg/ml), the lowest concentration of drug that inhibits visible growth of the organism, is read and recorded.
With `Cc1nnc(-c2ccc(N3C[C@H](C#N)OC3=O)cc2F)s1` [Example 4, (5R)-3-[3-fluoro-4-(5-methyl-1,3,4-thiadiazol-2-yl)phenyl]-2-oxo-1,3-oxazolidine-5-carbonitrile], the MIC was 4 µg/mL (≈ 13.1 µM).
With `N#C[C@H]1CN(c2ccc(-c3ccncc3)c(F)c2)C(=O)O1` [Example 5, (5R)-3-(3-fluoro-4-pyridin-4-ylphenyl)-2-oxo-1,3-oxazolidine-5-carbonitrile] the figure was 0.5 µg/mL (≈ 1.77 µM); with `N#C[C@H]1CN(c2cc(F)c(N3CCS(=O)(=O)CC3)c(F)c2)C(=O)O1` [Example 3, (5R)-3-[4-(1,1-dioxidothiomorpholin-4-yl)-3,5-difluorophenyl]-2-oxo-1,3-oxazolidine-5-carbonitrile], 2 µg/mL (≈ 5.6 µM).
Next, `N#C[C@H]1CN(c2ccc(N3CCOCC3)c(F)c2)C(=O)O1` [Example 2, (5R)-3-(3-fluoro-4-morpholin-4-ylphenyl)-2-oxo-1,3-oxazolidine-5-carbonitrile]: 8 µg/mL (≈ 27.5 µM); `N#C[C@H]1CN(c2ccc(C3CCS(=O)(=O)CC3)c(F)c2)C(=O)O1` [Example 1, (5R)-3-[4-(1,1-dioxidotetrahydro-2H-thiopyran-4-yl)-3-fluorophenyl]-2-oxo-1,3-oxazolidine-5-carbonitrile]: 1 µg/mL (≈ 2.96 µM).

These data come from patent publication US20050075382A1, “N-Aryl-2-cyanooxazolidinones and their derivatives” (priority 2003, published 2005).
